Source: PubChem BioAssay AID330 (DTP/NCI, 2004)
Several values for one entry are separate records, joined by “and”; a condition that tells them apart may be missing. Identical values can stand only once. Inconclusive results and toxic doses are left out. How the source made its calls: active means survival T/C of 150% or more; inactive means T/C below 125% in these data.

Tested on: P388 leukemia ip, CD2F1 mice, survival T/C
Assay: NCI In Vivo Anticancer Drug Screen. Data for tumor model P388 Leukemia (intraperitoneal) in CD2F1 (CDF1) mice
Details: endpoint: median survival time, higher = longer survival
Summary of the method: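 Mice carrying the transplanted tumor received test compound or vehicle. Survival was recorded in each group, and the value is the treated-group measurement divided by that of the vehicle-treated control group.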

[1] = dose: 50.0 mg/kg/injection, schedule: Q01DX009 (ip), vehicle: Klucel (hydroxypropylcellulose) (HPC)
[2] = dose: 100.0 mg/kg/injection, schedule: Q01DX009 (ip), vehicle: Klucel (hydroxypropylcellulose) (HPC)
[3] = dose: 200.0 mg/kg/injection, schedule: Q01DX009 (ip), vehicle: Klucel (hydroxypropylcellulose) (HPC)
[4] = dose: 60.0 mg/kg/injection, schedule: Q01DX005 (ip), vehicle: Klucel (hydroxypropylcellulose) (HPC)
[5] = dose: 120.0 mg/kg/injection, schedule: Q01DX005 (ip), vehicle: Klucel (hydroxypropylcellulose) (HPC)
[6] = dose: 240.0 mg/kg/injection, schedule: Q01DX005 (ip), vehicle: Klucel (hydroxypropylcellulose) (HPC)
[7] = dose: 50.0 mg/kg/injection, schedule: Q01DX009 (ip), vehicle: saline with Tween-80
[8] = dose: 100.0 mg/kg/injection, schedule: Q01DX009 (ip), vehicle: saline with Tween-80
[9] = dose: 60.0 mg/kg/injection, schedule: Q01DX005 (ip), vehicle: saline
[10] = dose: 100.0 mg/kg/injection, schedule: Q04DX003 (ip), vehicle: saline with Tween-80
[11] = dose: 200.0 mg/kg/injection, schedule: Q01DX009 (ip), vehicle: saline with Tween-80
[12] = dose: 200.0 mg/kg/injection, schedule: Q04DX003 (ip), vehicle: saline with Tween-80
[13] = dose: 50.0 mg/kg/injection, schedule: Q01DX005 (ip), vehicle: saline with Tween-80
[14] = dose: 100.0 mg/kg/injection, schedule: Q01DX005 (ip), vehicle: saline with Tween-80
[15] = dose: 200.0 mg/kg/injection, schedule: Q01DX005 (ip), vehicle: saline with Tween-80
[16] = dose: 25.0 mg/kg/injection, schedule: Q01DX005 (ip), vehicle: saline with Tween-80
[17] = dose: 50.0 mg/kg/injection, schedule: Q01DX005 (ip), vehicle: Klucel (hydroxypropylcellulose) (HPC)

Measured: T/C

O=[N+]([O-])c1cnc[nH]1
inactive: dose: 25.0 mg/kg/injection, schedule: Q01DX009 (ip), vehicle: Klucel (hydroxypropylcellulose) (HPC) 105 % of control | [1] 100 % of control and 101 % of control | [2] 100 % of control and 105 % of control | [3] 99 % of control and 100 % of control | dose: 360.0 mg/kg/injection, schedule: Q01DX001 (ip), vehicle: saline with Tween-80 95 % of control | dose: 600.0 mg/kg/injection, schedule: Q01DX001 (ip), vehicle: saline with Tween-80 100 % of control and 92 % of control | dose: 1000.0 mg/kg/injection, schedule: Q01DX001 (ip), vehicle: saline with Tween-80 99 % of control and 106 % of control

CC1CCCCC1(O)Cc1ccccc1 (stereo not drawn)
inactive: dose: 50.0 mg/kg/injection, schedule: Q01DX005 (ip), vehicle: distilled water + alcohol 108 % of control | dose: 100.0 mg/kg/injection, schedule: Q01DX005 (ip), vehicle: distilled water + alcohol 101 % of control | dose: 200.0 mg/kg/injection, schedule: Q01DX005 (ip), vehicle: distilled water + alcohol 105 % of control

COc1cccc(C2c3cc4c(cc3OC(C)(O)C2C)OCO4)c1O (stereo not drawn)
inactive: [4] 96 % of control | [5] 98 % of control | [6] 93 % of control

Cc1ccc2c(=O)n(C)c(=O)n(C)c2n1
inactive: dose: 12.5 mg/kg/injection, schedule: Q01DX009 (ip), vehicle: saline with Tween-80 98 % of control | dose: 25.0 mg/kg/injection, schedule: Q01DX009 (ip), vehicle: saline with Tween-80 102 % of control | [7] 103 % of control | [8] 103 % of control

O=C(NCCN1CCN2Cc3[nH]c4ccccc4c3CC2C1)c1ccc(Cl)cc1 (stereo not drawn)
inactive: [9] 102 % of control | dose: 120.0 mg/kg/injection, schedule: Q01DX005 (ip), vehicle: saline 97 % of control | dose: 240.0 mg/kg/injection, schedule: Q01DX005 (ip), vehicle: saline 90 % of control

CC(N)=S=O
inactive: dose: 15.0 mg/kg/injection, schedule: Q01DX005 (ip), vehicle: saline 112 % of control | dose: 30.0 mg/kg/injection, schedule: Q01DX005 (ip), vehicle: saline 103 % of control | [9] 106 % of control and 94 % of control

CC1CC(C)(C)N=C(CCC2CCCC2=O)O1 (stereo not drawn)
inactive: [8] 91 % of control | [10] 95 % of control | [11] 100 % of control | [12] 100 % of control | dose: 400.0 mg/kg/injection, schedule: Q01DX009 (ip), vehicle: saline with Tween-80 104 % of control | dose: 400.0 mg/kg/injection, schedule: Q04DX003 (ip), vehicle: saline with Tween-80 104 % of control

COC(=O)c1c(C(N)=O)c(C)n(NC(=O)Nc2ccccc2)c1C
inactive: [13] 96 % of control | [14] 89 % of control | [15] 94 % of control

O=C(O)C(Oc1nc(=S)[nH]c(=S)[nH]1)(c1ccc(Cl)cc1)c1ccc(Cl)cc1
inactive: dose: 60.0 mg/kg/injection, schedule: Q01DX005 (ip), vehicle: saline with Tween-80 103 % of control | dose: 120.0 mg/kg/injection, schedule: Q01DX005 (ip), vehicle: saline with Tween-80 101 % of control | dose: 240.0 mg/kg/injection, schedule: Q01DX005 (ip), vehicle: saline with Tween-80 103 % of control

Cc1ccc(N=C(N)NC#N)cc1
inactive: [7] 100 % of control | [8] 90 % of control | [10] 91 % of control | [11] 90 % of control | [12] 87 % of control

COc1ccc(CCNC2=CC(=O)CC2)cc1OC
inactive: [16] 92 % of control | [13] 89 % of control | [14] 92 % of control

CCOC(=O)COc1cc2c(cc1C(C)c1ccc(OCC)cc1)OCO2 (stereo not drawn)
inactive: [17] 93 % of control | dose: 100.0 mg/kg/injection, schedule: Q01DX005 (ip), vehicle: Klucel (hydroxypropylcellulose) (HPC) 93 % of control | dose: 200.0 mg/kg/injection, schedule: Q01DX005 (ip), vehicle: Klucel (hydroxypropylcellulose) (HPC) 88 % of control

O=C(O)CCCCC=C(c1ccccc1)c1ccccc1
inactive: dose: 50.0 mg/kg/injection, schedule: Q01DX005 (ip), vehicle: saline + Tween-80 + alcohol 101 % of control | dose: 100.0 mg/kg/injection, schedule: Q01DX005 (ip), vehicle: saline + Tween-80 + alcohol 102 % of control | dose: 200.0 mg/kg/injection, schedule: Q01DX005 (ip), vehicle: saline + Tween-80 + alcohol 101 % of control

CC1(C)OC(=O)N=C1c1ccc(F)cc1
inactive: [4] 102 % of control | [5] 107 % of control | [6] 111 % of control

Cc1cc2c(cc1C)NC1=C(N2)OC(c2cccc(O)c2)C1=O (stereo not drawn)
inactive: dose: 7.5 mg/kg/injection, schedule: Q01DX005 (ip), vehicle: Klucel (hydroxypropylcellulose) (HPC) 104 % of control | dose: 15.0 mg/kg/injection, schedule: Q01DX005 (ip), vehicle: Klucel (hydroxypropylcellulose) (HPC) 101 % of control | dose: 30.0 mg/kg/injection, schedule: Q01DX005 (ip), vehicle: Klucel (hydroxypropylcellulose) (HPC) 110 % of control

COc1ccc(C#N)cc1OC
inactive: dose: 6.25 mg/kg/injection, schedule: Q01DX009 (ip), vehicle: saline 99 % of control | dose: 12.5 mg/kg/injection, schedule: Q01DX009 (ip), vehicle: saline 108 % of control | dose: 25.0 mg/kg/injection, schedule: Q01DX009 (ip), vehicle: saline 92 % of control | dose: 50.0 mg/kg/injection, schedule: Q01DX009 (ip), vehicle: saline 92 % of control

O=C1C=C(c2ccccc2)Sc2ccccc2N1
inactive: [1] 95 % of control | [2] 88 % of control | [3] 87 % of control | dose: 400.0 mg/kg/injection, schedule: Q01DX009 (ip), vehicle: Klucel (hydroxypropylcellulose) (HPC) 94 % of control

CCCCCCCCCCCCCCCC(=O)NCC(=O)NC1CC(OC2CC(O)(C(C)=O)Cc3c(O)c4c(c(O)c32)C(=O)c2c(OC)cccc2C4=O)OC(C)C1O (stereo not drawn)
inactive: dose: 0.75 mg/kg/injection, schedule: Q01DX009 (ip), vehicle: other 100 % of control | dose: 1.5 mg/kg/injection, schedule: Q01DX009 (ip), vehicle: other 103 % of control | dose: 3.0 mg/kg/injection, schedule: Q01DX009 (ip), vehicle: other 118 % of control

Cc1c(C)c(C)c(S(=O)(=O)OCCCl)c(C)c1C
inactive: [13] 98 % of control | [14] 92 % of control | [15] 95 % of control

COc1ccc(C2N(c3ccccc3)CCN2c2ccccc2)cc1
inactive: [13] 99 % of control | [14] 93 % of control | [15] 93 % of control

N#Cc1c(=O)n(O)c2ccccc2[n+]1[O-]
inactive: [16] 94 % of control | [13] 97 % of control | [14] 106 % of control | [15] 102 % of control | dose: 400.0 mg/kg/injection, schedule: Q01DX005 (ip), vehicle: saline with Tween-80 93 % of control

Cc1ccc(S(=O)(=O)N/N=C2\CC/C(=N\NS(=O)(=O)c3ccc(C)cc3)[C@@H]3CC=CC[C@H]23)cc1
inactive: [13] 92 % of control | [14] 92 % of control | [15] 89 % of control

CCC(O)(C(=O)O)c1cc[n+](Cc2cnc3ccccc3c2)cc1C (stereo not drawn)
inactive: dose: 12.5 mg/kg/injection, schedule: Q01DX005 (ip), vehicle: Klucel (hydroxypropylcellulose) (HPC) 96 % of control | dose: 25.0 mg/kg/injection, schedule: Q01DX005 (ip), vehicle: Klucel (hydroxypropylcellulose) (HPC) 86 % of control | [17] 100 % of control
